Data on eight molecules can be found in US20230147312A1, “TREATMENT OF ACUTE RESPIRATORY DISTRESS SYNDROME AND RELATED CONDITIONS WITH ANTAGONISTS OF E-SELECTIN” (GLYCOMIMETICS, INC., priority 2020, published 2023).

“Also recorded” adds a separate entry of the source. Like-named read-outs stand apart in the source and are kept apart here.

For data set [1], the system named is human umbilical vein endothelial cells (HUVEC). As to conditions: cytokine treatment over 4 hours, vs Medium control; cited from earlier work.
Data set [2] has as its system human dermal microvascular endothelial cells (HDMEC). As to conditions: cytokine treatment over 4 hours, vs Medium control; cited from earlier work.
The subject of a further data set is COVID-19 patients. As to conditions: of six COVID-19 patients in the ICU; cited from earlier work.
The test system of data set [3] is animals. Put plainly: toxicity in animals.
The test system of data set [4] is humans. In words: toxicity in Phase 1 clinical trials / humans.
The subject of data set [5] is animals. As to conditions: in vivo.
The next data set deals with sE-selectin. As to conditions: cited from earlier work.
For a further data set, the target named is T1, E-selectin (Homo sapiens, UniProt P16581).
T1 sequence (P16581 22-610): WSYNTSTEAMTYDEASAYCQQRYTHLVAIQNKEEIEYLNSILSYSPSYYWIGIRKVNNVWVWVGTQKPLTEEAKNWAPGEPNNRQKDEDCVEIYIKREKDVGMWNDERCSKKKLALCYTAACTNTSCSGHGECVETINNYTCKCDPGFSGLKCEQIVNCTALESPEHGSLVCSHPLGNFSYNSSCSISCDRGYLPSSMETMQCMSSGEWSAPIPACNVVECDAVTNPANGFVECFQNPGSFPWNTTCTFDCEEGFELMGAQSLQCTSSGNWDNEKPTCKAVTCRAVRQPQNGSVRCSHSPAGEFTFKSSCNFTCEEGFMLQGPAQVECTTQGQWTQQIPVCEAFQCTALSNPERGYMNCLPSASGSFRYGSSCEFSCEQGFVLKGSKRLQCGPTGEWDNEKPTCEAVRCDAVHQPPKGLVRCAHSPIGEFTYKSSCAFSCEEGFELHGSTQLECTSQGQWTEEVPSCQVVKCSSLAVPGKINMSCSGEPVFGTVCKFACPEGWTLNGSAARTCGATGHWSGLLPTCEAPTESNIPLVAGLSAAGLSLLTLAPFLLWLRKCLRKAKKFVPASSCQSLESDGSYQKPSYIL
Put plainly: binding and inhibiting E-selectin.

Data set [6] relates to humans. As to conditions: human, in vivo.
For data set [7], the system named is Human lung microvascular endothelial cells (HMVEC-L). As to conditions: HMVEC-L treated with 10 μM; cited from earlier work.

On to “IL-1β: cytokine used to treat endothelial cells”, for which the “expression of E-selectin” value in data set [1] and in data set [2] was “stimulate expression of E-selectin” each time.

Turning to “tocilizimab: antibody directed against the cytokine, IL-6, approved as an anti-inflammatory drug”, in the data set with COVID-19 patients, the patients who died result is given as “one”, the “patients who showed improvement” value was “three” and the patients who stabilized entry is “two”.

For the molecule TNFα, the “expression of E-selectin” value in data set [1] and in data set [2] was “stimulate expression of E-selectin” each time.

Turning to `C[C@@H]1O[C@@H](O[C@@H]2[C@@H](NC(=O)c3cc(=O)[nH]c(=O)[nH]3)C[C@@H](C(=O)NCCNC(=O)COCCOCC(=O)Nc3cc(S(=O)(=O)O)cc4cc(S(=O)(=O)O)cc(S(=O)(=O)O)c34)C[C@H]2O[C@@H]2O[C@H](CO)[C@H](O)[C@H](O[C@@H](CC3CCCCC3)C(=O)O)[C@H]2OC(=O)c2ccccc2)[C@@H](O)[C@H](O)[C@@H]1O` [GMI-1070], the toxicities result in the data set with animals [3] and with humans [4] (Phase 1 clinical trials) was “no measurable toxicities” in each case. Further, the toxicity entry was “no toxicity” in the data set with animals [3] (relatively high concentrations) and “no toxicity” in the data set on humans [4] (humans, relatively high concentrations).

As to `CC[C@H]1C[C@@H](C(=O)NCCNC(=O)CCOCCOCCOCCOCCOCCOCCOCCOCCOCCOCCOCCOC)C[C@@H](O[C@@H]2O[C@H](CO)[C@H](O)[C@H](O[C@@H](CC3CCCCC3)C(=O)[O-])[C@H]2NC(C)=O)[C@@H]1O[C@@H]1O[C@@H](C)[C@@H](O)[C@@H](O)[C@@H]1O.[Na+]` [GMI-1271], in the data set on animals [5], the toxicities entry was “no measurable toxicities” and the toxicity result is recorded as “no toxicity”. The “sE-selectin circulating (plasma) levels” value in the data set with sE-selectin (AML patients, after treatment, all dose groups) is recorded as “significantly (P<0.0001) reduced; also recorded: decreased over the treatment period in all dose groups”. Further, the “decrease of plasma soluble E-selectin from baseline to Day 8” value with sE-selectin (end of 6 days of dosing concurrently with MEC chemotherapy) is “highly significant (p<0.0001) with no dose response”. Besides, the “antagonism of E-selectin” value on E-selectin was “potent antagonists of E-selectin”. Also, in the data set on humans [6], the toxicities entry is “no measurable toxicities” and the toxicity entry is reported as “no toxicity”.

As for `CCCCCCCCCCCCCCC(Cl)C(=O)O` (stereo not shown) [Compound 2-CIPA, 2-chloropalmitic acid], the “adherence of human neutrophils” value in data set [7] is “promoted neutrophil adhesion; also recorded: increases adhesion of neutrophils”.

Consider `CCCCCCCCCCCCCCCC(=O)O` [PA, palmitic acid], for which, in data set [7], the “adherence of human neutrophils” value was “did not”.

B1: IL-10: cytokine used to treat endothelial cells (protein, UniProt P22301 19-178, looked up)
Interleukin-10: SPGQGTQSENSCTHFPGNLPNMLRDLRDAFSRVKTFFQMKDQLDNLLLKESLLEDFKGYLGCQALSEMIQFYLEEVMPQAENQDPDIKAHVNSLGENLKTLRLRLRRCHRFLPCENKSKAVEQVKNAFNKLQEKGIYKAMSEFDIFINYIEAYMTMKIRN
On to B1, for which the “expression of E-selectin” value in [1] and in data set [2] was “stimulate expression of E-selectin” in each case.
